{"source": "patent US7271239B2", "about": "“D-isomers of antimicrobial peptide” (The Research Foundation of State University of New York, priority 2004, dated 2007)", "key": {"[1]": {"test_system": "S. mutans GS-5", "test": "Time-kill assay", "format": "cell-based, Streptococcus mutans", "details": "after 4 h incubation, each agent at its MIC", "protocol": "FIG. 10. Time-Killing curves for S. mutans. […] Control (▪), MUC7 12-mer-L (Δ), MUC7 12-mer-D (□), MUC7 20-mer (▴), Hsn5 12-mer (×), magainin II (●), chlorhexidine (◯).\nFor the peptides MUC7 12-mer-L, MUC7 12-mer-D, and MUC7 20-mer, time-kill kinetic studies against S. mutans were performed by the broth macrodilution method. S. mutans GS-5 (1×10^6 CFU/ml) and antibacterial agens (find concentrations of 12.5 μM for each peptide, and 2 μM for CHX; their MICs) were incubated in 25% BHI at 37° C. At the time of 0, 1, 2, 4, 8, and 24 h, samples were taken and viable counts determined as follows: The samples were serially diluted (10^−1 to 10^−4) in sterile 10 mM PBS (pH 7.2) and 50 μl aliquots were plated onto TSBY agar. The plates were incubated anaerobically at 37° C. for 48 h, followed by enumerating the CFU. Killing curves were constructed by plotting the log10 CFU per milliliter versus time over 24 h. All assays were done in duplicate on at least two occasions."}, "[2]": {"test_system": "C. albicans strain DIS", "format": "in vivo, mice ICR strain", "details": "mouse, in vivo", "protocol": "A previously described protocol was adopted (14). Mice were immunosuppressed with two subcutaneous injections of prednisolone at a dose of 100 mg/kg body weight 1 day prior to and 3 days after the infection with C. albicans. Tetracycline hydrochloride in drinking water at a concentration of 0.83 mg/ml was given to mice beginning 1 day before infection. Mice were anesthetized by intramuscular injection with 60 μl of 2 mg/ml chlorpromazine chloride, using a dose of 10 mg/kg body weight of mice. While under anesthesia, a small cotton ball soaked in 0.1 ml aliquot of C. albicans cell suspension (2.5×10^6 cells) was used to swab the entire oral cavity of the anesthetized mice.\nVisual evaluation was done by carefully extending the tongue of randomly picked mice using blunt-end forceps, while the mice were under isoflurane sedation. Presence of thick, white curd-like patches indicated candidal infection. At day 3 post-infection, all animals were examined for evidence oral candidal infection by microbiological evaluation. The entire oral cavity of anesthetized mice was swabbed using a sterile calcium alginate disposable swab (Fisher Scientific), dampened with sterile PBS. Cells were then released from the swab into 1 ml PBS. Serial 10-fold dilutions were plated on SDA plates supplemented with streptomycin (30 μg/ml). Plates were incubated for 24 h at 37° C. and yeast cell count expressed as log10 of cfu/ml.\nTongues from sacrificed animals were used for histological studies. They were fixed in 10% formalin and embedded in paraffin. Serial five-μm sections were cut from the paraffin block and stained with periodic acid-Schiff (PAS) reagent for detection of C. albicans.\nMice were randomly divided into various treatment groups with 8 mice per group. Antifungal agents were employed on an equimolar basis, and included amphotericin B (1.75%), clotrimazole (0.66%), MUC7 12-mer (RKSYKCLHKRCR—SEQ ID NO:1) (L; 3%), MUC7 12-mer (D; 3%), MUC7 12-mer (D; 3%) containing Na2EDTA (1 mM), MUC7 12-mer (L; 3%) containing protease inhibitor cocktail (PIC) (1%), and Hsn5 12-mer (AKRHHGYKRKFH—SEQ ID NO:2) (3%). They were all emulsified in Pluronic F127, (20% lipoil), a polymer of polyoxyethylene and polyoxypropylene (non-ionic surfactant). Animals were anesthetized using isoflurane; while sedated, about 30 to 40 μl of the antifungal emulsion was applied on the tongue and spread throughout oral cavity. The treated mice were under sedation for additional 5 min under isoflurane. Animals were not given access to food and water for 1 h following the application.\nFungal burden was re-evaluated quantitatively after 3 and 6 days of treatment, using the same technique as the one used for initial evaluation. Randomly picked mice from each group was subjected to histopathological evaluation, after 6 days of treatment. Blood from randomly sacrificed mice from each treatment group was analyzed for any changes in the serum liver (AST, ALT, ALP etc.) and kidney enzymes (BUN, glucose, creatinine etc) levels.\nStatistical analysis was performed using a significance level set at 0.05 (α) and a significant group size (n=8). Initial infection and antifungal treatment efficacy were determined using analysis of variance (ANOVA), expressed as log10 cfu, and Scheffe's multiple comparison test was used to determine the differences between various treatment groups."}, "[3]": {"test_system": "C. krusei", "test": "Killing assay in clarified saliva", "format": "cell-based", "excerpt": "(§1) Killing assays in saliva. […] Saliva without peptides was a blank control.\n(§2) Activity of peptides in saliva against different candida strains. The in vitro candidacidal activities of MUC7 12-mer-L and D, Hsn5 12-mer, and Magainin-II against four Candida strains in clarified saliva are shown in Table 1. The data are presented as percent loss of cell viability compared to non-treated control. The following observations were made. […] In the presence of PIC, the activity values of MUC7 12-mer-L and of Magainin-II rose close to a 100% for all strains, but not that of Hsn5 peptide, which achieved the similar activity only against the C. albicans (ATCC strain). The activities against the other strains were much lower, in particular against both strains of C. glabrata (30-40%). […] This was true especially in saliva without PIC."}, "[4]": {"test_system": "C. albicans ATCC96112", "test": "Killing assay in clarified saliva", "format": "cell-based", "excerpt": "as §1, §2"}, "[5]": {"test_system": "C. glabrata ATCC90030", "test": "Killing assay in clarified saliva", "format": "cell-based", "excerpt": "as §1, §2"}}, "note": "Where no end group is shown, it is not given here."}
{"compound": "[H]/N=C(\\N/C(=N/[H])NCCCCCCNC(=N)NC(=N)Nc1ccc(Cl)cc1)Nc1ccc(Cl)cc1", "note": "[Chlorhexidine, Chlorhexidine digluconate]", "values": [{"measurement": "reduction of the viable counts of S. mutans", "setting": "[1]", "result": 1, "unit": "log10"}]}
{"compound": "AKRHHGYKRKFH [Hsn5 12-mer]", "values": [{"measurement": "additional tissue change in tongue section", "setting": "[2]", "result": "acanthosis of the stratum spinosum"}]}
{"compound": "GIGKFLHSAKKFGKAFVGEIMNS [Magainin-II]", "values": [{"measurement": "percent loss of cell viability", "setting": "[3]; PIC+", "result": 100, "unit": "%"}, {"measurement": "percent loss of cell viability", "setting": "[3]; PIC−", "result": 0.00, "unit": "%"}, {"measurement": "percent loss of cell viability", "setting": "[4]; PIC+", "result": 97.90, "unit": "%"}, {"measurement": "percent loss of cell viability", "setting": "[4]; PIC−", "result": 7.17, "unit": "%"}, {"measurement": "percent loss of cell viability", "setting": "[5]; PIC+", "result": "99.06^± %"}, {"measurement": "percent loss of cell viability", "setting": "[5]; PIC−", "result": 0.00, "unit": "%"}, {"measurement": "reduction of the viable counts of S. mutans", "setting": "[1]", "result": 3, "unit": "log10"}]}
